The record followed here is patent US8304448B2, “Method for the treatment of metabolic disorder containing benzazole derivatives as an active ingredient” (Korea Research Institute of Bioscience and Biotechnology, priority 2006, dated 2012).

The subject of assay [1] is DGAT. Nature of the assay: Assay for inhibitory activity against DGAT ([14C]triacylglycerol formation, rat microsomal protein). Format: biochemical. Particulars: rat microsomal protein as enzyme source. An excerpt: The derivatives of Chemical Formula 1 in accordance with the present invention are found to inhibit the enzymatic activity of DGAT at a dose-dependent manner (refer to Table 2 and FIG. 1) as measured in a test in which [^14C]triacylglycerol was quantitatively analyzed after enzymatic reaction between 1,2-diacylglycerol and [^14C]palmitoyl-CoA, with microsomal proteins from rats serving as an enzyme source (refer to Example 1).
After enzymatic reaction between two substrates 1,2-diacylglycerol (Sigma, D0138) and [^14C]palmitoyl-CoA (Amersham, CFA583) with the microsomal protein of rat serving as an enzyme source in accordance with Coleman et al, Methods Enzymol., 98-103, 1992, the resulting product [^14C] triacylglycerol was measured for radioactivity. In detail, to a reaction buffer (175 mM Tris-HCl, pH 8.0, 20 μl bovine serum albumin (10 mg/ml), 100 mM MgCl2, 30 μM [^14C] palmitoyl-CoA (0.02 μCi, Amersham) and 200 μM 1,2-dioleoyl glycerol) was added 10 μl of a solution of the samples in dimethylsulfoxide (DMSO) and then 100˜200 μl of an isolated microsomal protein, followed by reaction at 25° C. for 10 min. The reaction was terminated with 1.5 ml of a mixture of 80:20:2 2-propanol:heptane:water (v:v:v). Thereafter, the [^14C] triacylglycerol thus formed was separated. In this regard, 1 ml of heptane and 0.5 ml of distilled water were added to the reaction mixture, which was then shaken. 1 ml of the supernatant thus formed was mixed with 2 ml of an alkaline ethanol solution (ethanol:0.5 N sodium hydroxide:water=50:10:40, v:v:v), followed by shaking. After being taken, 0.65 ml of the supernatant thus formed was measured for radioactivity using an LSC (liquid scintillation counter). The inhibitory activity against DGAT was calculated according to the following Mathematical Formula 1. The inhibitory effects of the benzazole derivatives on DGAT are summarized in Table 2, below while % DGAT inhibition is plotted against doses of compound 22 and 31 in FIG. 1.
T: Cpm of a test group in which a sample was added to an enzymatic buffer,
C: Cpm of a control in which no samples were added to an enzymatic buffer,
B: Cpm of a control in which a sample was added in the absence of any enzyme source.

For assay [2], the system named is ICR mice fed a high-fat diet. Nature of the assay: In vivo assay for anti-obesity activity in mice fed a high-fat diet. Further details: species or system mouse. Particulars: high-fat diet. As to the method: Also, the derivatives of Chemical Formula 1 were tested for resistance to obesity by iterative oral administration at a dose of 10 mg/kg into ICR male mice (refer to Example 3). […] When they were administered, the levels of total triglycerides, total cholesterols, and low density lipoprotein (LDL)-cholesterol in the blood recovered to almost normal levels, with a significant increase observed in the level of high density lipoprotein (HDL)-cholesterol in the blood (refer to Tables 6 and 7 and FIGS. 3 and 4).
In order to verify the anti-obesity activity of the benzaldehyde derivatives of Chemical Formula 1 in accordance with the present invention, Compounds 22 and 31 were administered repetitively into rodents as follows.
The experimental animals were 6 week old ICR mice which were purchased from Japan SLC, Inc. via Central Lab. Animal Inc. Korea. They were acclimated to a new environment for one week before use, and fed with a foodstuff commercially available from Deyts, U.S.A. They were bred in an animal lab set at a temperature of 23±3° C. and RH 50±10% under light of 150˜300 Lux for a period of 12 hours (6 a.m.˜6 p.m.) with ventilation 10-20 times/hour. All of the 12 mice used were male, and were organized into two groups of 6. The test group was orally administered once a day at 4 p.m. with 10 mg/kg of the compound (Chemical Formula 1) in the form of a solution in biological saline for 35 days while the control was administered with biological saline only. Xenical, a commercially available lipase inhibitor, was administered orally at a dose of 10 mg/kg once a day as a positive control drug.
The animals were measured for body weight every week and sacrificed on Day 35, after which blood from the heart was sampled. Abdominal fat, epididymal fat, retroperitoneal fat and the liver were excised and weighed. Blood samples were assayed for total triglyceride, total cholesterol, HDL-cholesterol and LDL-cholesterol using respective test kits, all commercially available from Asan Pharmaceutical Co. Ltd., Korea.
For evidence of anti-obesity activity, compounds 22 and 31 were orally administered at regular intervals at a dose of 10 mg/kg into ICR male mice for a predetermined period of time with the concurrent provision of conditional diets thereto. Anatomized abdomens of the animals are given in the photographs of FIG. 2.

[3] abbreviates: Day 35, 10 mg/kg oral, Mean ± SD.
Setting [4] is: blood, Day 35, 10 mg/kg oral, Mean ± SD.

`COC(=O)c1ccc2oc(COc3ccc(C45CC6CC(CC(C6)C4)C5)cc3)nc2c1` [Cpd. 2, 2-(4-adamantan-1-yl-phenoxymethyl)-benzoxazole-5-carboxylic acid methyl ester]: the “DGAT (% inhibition in 25 μM)” value in assay [1] is reported as −25.72%.

`NC(=O)c1ccc2nc(COc3ccc(C45CC6CC(CC(C6)C4)C5)cc3)[nH]c2c1` [compound 29, 2-(4-adamantan-1-yl-phenoxymethyl)-3H-benzoimidazole-5-carboxylic acid amide]: in assay [1], the “DGAT (% inhibition in 5 μM)” value is recorded as −1.8% and the “DGAT (% inhibition in 25 μM)” value is −13.38%.

`O=C(O)c1ccc2[nH]c(COc3ccc(Cl)cc3Cl)nc2c1` [compound 16, 2-(2,4-dichloro-phenoxymethyl)-1H-benzoimidazole-5-carboxylic acid]: the “DGAT (% inhibition in 25 μM)” value in assay [1] is on record as −7.37%.

As for `O=C(NCc1ccco1)c1ccc2nc(COc3ccc(Cl)cc3Cl)[nH]c2c1` [compound 35, 2-(2,4-dichloro-phenoxymethyl)-3H-benzoimidazole-5-carboxylic acid (furan-2-ylmethyl)-amide], the “DGAT (% inhibition in 25 μM)” value in assay [1] is listed as 28.63%.

Regarding `O=C(O)c1ccc2nc(COc3ccc(C45CC6CC(CC(C6)C4)C5)cc3)oc2c1` [compound 13, 2-(4-adamantan-1-yl-phenoxymethyl)-benzoxazole-6-carboxylic acid], in assay [1], the “DGAT (% inhibition in 25 μM)” value is reported as −18.53%.

On to `O=C(O)c1ccc2[nH]c(COc3ccc([N+](=O)[O-])cc3)nc2c1` [compound 19, 2-(4-nitro-phenoxymethyl)-1H-benzoimidazole-5-carboxylic acid], for which, in assay [1], the “DGAT (% inhibition in 5 μM)” value amounted to 2.0% and the “DGAT (% inhibition in 25 μM)” value is reported as −5.86%.

For the compound `CC(C)(C)c1ccc(OCc2nc3cc(C(=O)O)ccc3[nH]2)cc1` [compound 18, 2-(4-tert-butyl-phenoxymethyl)-1H-benzoimidazole-5-carboxylic acid], the “DGAT (% inhibition in 25 μM)” value in assay [1] is −13.05%.

Turning to `CN(C)CCNC(=O)c1ccc2oc(COc3ccc(C45CC6CC(CC(C6)C4)C5)cc3)nc2c1` [compound 23, 2-(4-adamantan-1-yl-phenoxymethyl)-benzoxazole-5-carboxylic acid (2-dimethylamino-ethyl)-amide], the “DGAT (% inhibition in 25 μM)” value in assay [1] turned out to be 8.59%.

For `COC(=O)c1ccc2oc(COc3ccc(Cl)cc3Cl)nc2c1` [Cpd. 1, 2-(2,4-dichloro-phenoxymethyl)-benzoxazole-5-carboxylic acid methyl ester], in assay [1], the “DGAT (% inhibition in 25 μM)” value is −2.64%.

Consider `NNC(=O)c1ccc2[nH]c(COc3ccc(Cl)cc3Cl)nc2c1` [compound 34, 2-(2,4-dichloro-phenoxymethyl)-1H-benzoimidazole-5-carboxylic acid hydrazide], for which the “DGAT (% inhibition in 25 μM)” value in assay [1] is on record as 6.74%.

Regarding `COC(=O)c1ccc2nc(COc3ccc(C(C)(C)C)cc3C(C)(C)C)oc2c1` [compound 7, 2-(2,4-tert-butyl-phenoxymethyl)-benzoxazole-6-carboxylic acid methyl ester], the “DGAT (% inhibition in 25 μM)” value in assay [1] was 34.5%.

For the compound `CCCCCCCCCCC[C@@H](C[C@@H]1OC(=O)[C@H]1CCCCCC)OC(=O)[C@H](CC(C)C)NC=O` [Xenical, reference compound], in assay [2] (setting [3]), the “(Tissue Weight/Body Weight) × 100 Abdominal Fat + Epididymal Fat” value worked out at 2.45 ± 1.03, the “(Tissue Weight/Body Weight) × 100 Liver” value was found to be 4.31 ± 0.76, the “(Tissue Weight/Body Weight) × 100 Retroperitoneal Fat” value is given as 0.75 ± 0.50 and the “(Tissue Weight/Body Weight) × 100 Total Fat” value was found to be 3.20 ± 1.52. Further, in assay [2] (setting [4]), the “HDL-Cholesterol” value is 30.28 ± 1.52 mg/dL, the “LDL-Cholesterol” value was 20.45 ± 8.99 mg/dL, the “Total Cholesterol” value came to 53.75 ± 12.35 mg/dL and the “Total Triglyceride” value is 40.77 ± 6.06 mg/dL. Also, the “inhibition of body weight gain” value in assay [2] (10 mg/kg oral once a day for 35 days) is given as 88%. In addition, the “Body Weight (g) (Mean ± SD) Week 0” value in assay [2] (10 mg/kg oral once a day, Week 0) is 26.30 ± 1.45 g. Further, in assay [2] (10 mg/kg oral once a day, Week 1), the “Body Weight (g) (Mean ± SD) Week 1” value is recorded as 33.63 ± 1.28 g. The “Body Weight (g) (Mean ± SD) Week 2” value in assay [2] (10 mg/kg oral once a day, Week 2) is 37.41 ± 2.02 g. Further, the “Body Weight (g) (Mean ± SD) Week 3” value in assay [2] (10 mg/kg oral once a day, Week 3) was 39.11 ± 0.90 g. The “Body Weight (g) (Mean ± SD) Week 4” value in assay [2] (10 mg/kg oral once a day, Week 4) is on record as 39.95 ± 1.26 g. Besides, the “Body Weight (g) (Mean ± SD) Week 5” value in assay [2] (10 mg/kg oral once a day, Week 5) turned out to be 41.24 ± 1.60 g.
